Assay results from publication PMC9011347, “Small-Molecule Inhibitors Targeting Lipolysis in Human Adipocytes” (Journal of the American Chemical Society, 2022).

Biological target: T1, human pancreatic lipase (Homo sapiens, UniProt P16233)
T1 construct: purchased MilliporeSigma SRE0028
Assay: Activity of purified pancreatic lipase, radiolabeled triolein
Assay type: biochemical
Conditions: NG-497 100 µM
Experimental: Fig. S3: Investigation of off-target effects of NG-497 on structurally and functionally related lipid hydrolases. (a) PNPLA1-dependent formation of acylceramides was monitored in a cell-based assay in HEK293T cells. Experiments were performed in the presence or absence of NG-497 (40 µM) and the non-selective lipase inhibitor Orlistat (40 µM). Orlistat, but not NG-497, inhibited PNPLA1/CGI-58-dependent ω-O-acylceramide formation. (b-h) Enzymes were overexpressed in Expi293 cells and cell lysates were used as source of enzymatic activity. […] Experiments were performed in the presence or absence of NG-497 (100 µM) and the formation of reaction products was monitored. […]
Data were calculated relative to the basal activity detected in LacZ-transfected controls. […]
LPL activity was inhibited using an anti-LPL antibody. All data are presented as mean ± S.D. Statistical significance was determined via ANOVA followed by Bonferroni post hoc test ( ***, p < 0.001). […]
Released free fatty acids were quantified via NEFA C kit (Fujifilm Wako Chemicals, Neuss, Germany) and release of p-nitrophenol was measured at 405 nm. […] Cellular ω-O-acylceramide formation was monitored using [1-14C]linoleic acid as tracer. […] The activity of purified human pancreatic lipase (MilliporeSigma #SRE0028) was determined as previously described7 in the presence or absence of NG-497 (100µM) or Orlistat (20 µM). […]

T1 sequence (P16233 17-465): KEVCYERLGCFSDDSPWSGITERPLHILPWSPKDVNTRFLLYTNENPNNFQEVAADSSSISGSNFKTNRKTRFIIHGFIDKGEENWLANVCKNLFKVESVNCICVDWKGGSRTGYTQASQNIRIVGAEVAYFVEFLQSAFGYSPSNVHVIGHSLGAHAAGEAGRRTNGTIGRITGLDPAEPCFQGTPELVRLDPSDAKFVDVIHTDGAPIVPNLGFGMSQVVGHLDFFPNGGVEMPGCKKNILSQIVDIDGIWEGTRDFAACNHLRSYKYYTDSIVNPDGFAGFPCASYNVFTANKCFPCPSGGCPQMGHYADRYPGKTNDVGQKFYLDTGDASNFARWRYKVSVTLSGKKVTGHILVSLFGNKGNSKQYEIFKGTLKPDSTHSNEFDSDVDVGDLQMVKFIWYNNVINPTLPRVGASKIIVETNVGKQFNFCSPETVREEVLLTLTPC

Q: Which “inhibition of pancreatic lipase” value does the source give for `CCOc1ccc(-c2cc(OC)cc(C(=O)OC(C)C)n2)cc1` [NG-497] here?
A: did not observe inhibition
